# Patent US20240293367A1, “METHODS OF TREATING DISORDERS WITH A […]” (Cybin IRL Limited, priority 2023, published 2024)
# Where “and” joins values, the source holds several entries; their conditions need not be identical. Equal values may be shown once. Read-outs that look alike come from different tables or passages of the source.
# Assay: Phase I/IIa clinical PK of oral psilocin-d10, plasma, noncompartmental analysis (Cohorts 1-6)
# Format: in vivo, human
# Settings: for AUC(0-inf): read-out: AUC0-inf Mean (SD)
# Procedure: Phase I/IIa, Randomized, Double-Blind, Placebo-Controlled Study which assesses the safety, tolerability, pharmacokinetics, and pharmacodynamics of multiple ascending oral doses of psilocin-d10 in participants with and without MDD (ClinicalTrials.gov Identifier: NCT05385783). All subjects receiving study medication in Cohorts 1-6 received oral psilocin-d10 powder in solution (0.1M citric acid+Tang orange drink, 30 mL dose in a dose cup) and subjects receiving placebo received a similar volume of Tang orange drink without the psilocin-d10 study drug. All subjects receiving study medication in the relative bioavailability (BA) cohort received powder-filled capsules containing psilocin-d10 benzenesulfonate salt by ingestion with approximately 240 mL room temperature water, or oral psilocin-d10 powder in solution (0.1M citric acid+Tang orange drink, 30 mL dose in a dose cup) in a cross-over design. Psilocin-d10 for the powder in solution dosage form was manufactured by Patheon Pharma Services, with an isotopic purity of 79.89%. Psilocin-d10 benzenesulfonate salt for the powder-filled capsule dosage form was manufactured by Patheon Pharma Services, with an isotopic purity of 85.20%.
# Cohorts 1, 4, 5, and 6 of the study was comprised of participants with MDD. Cohorts 2, 3, and the relative BA cohort of the study were comprised of normal healthy volunteers (NHV). […] MDD participants had been on a stable dose of antidepressant medication for at least one month prior to screening with an inadequate response to that antidepressant medication as judged by the Investigator, and continued to receive their prescribed antidepressant throughout the course of the study.
# Cohort 1. For Cohort 1, 2 sentinel subjects were randomized and dosed, including 1 subject who received a psilocin-d10 1 mg oral dose and 1 subject who received a placebo dose. After the sentinel subjects were dosed, an additional 2 subjects were dosed, including a replacement subject for one of the sentinel subjects who withdrew consent and one additional subject. In total, four Cohort 1 subjects received a first dose of study medication on Day 1, and 3 subjects received a second dose of study medication on Day 22. For the first dose, 2 subjects received an active psilocin-d10 1 mg dose and 2 subjects received placebo. For the second dose, 3 subjects received an active psilocin-d10 1 mg dose.
# Cohort 2. For Cohort 2, 4 subjects were randomized and dosed on Day 1 (2 subjects on one day, 2 subjects on the next day), including 3 subjects who received a psilocin-d10 3 mg oral dose and 1 subject who received a placebo dose. These same 4 subjects were again dosed on Day 8 (2 subjects on one day, 2 subjects on the next day), with all 4 subjects receiving a psilocin-d10 8 mg oral dose (note the actual washout was 11 days between doses).
# Cohort 3. For Cohort 3 Day 1, 4 subjects were randomized and dosed on Day 1 (2 subjects on one day, 2 subjects on the next day), including 3 subjects who received a psilocin-do 8 mg oral dose and 1 subject who received a placebo dose. […] Another subject was dosed and left the study after the 2-hour PK sampling and has limited PK samples available for analysis from 0 to 2 hours—this subject's PK data has thus been excluded from the analysis presented hereinafter. For Cohort 3 Day 8, 3 subjects were dosed on Day 8 with a psilocin-d10 10 mg dose (2 sentinel subjects were dosed on one day, 1 non-sentinel subject was dosed on the next day).
# Cohorts 4 and 5. For Cohorts 4 and 5, 12 participants each (24 participants total) were randomized in a 3:1 ratio to receive 12 mg of psilocin-d10 or matched placebo in a single dosing session on Day 1. Following a 21-day interval, all participants received a dose of 12 mg psilocin-d10 on Day 22 (second dose for participants originally randomized to psilocin-d10, first dose for participants randomized to placebo), and were followed to Day 42.
# Cohort 6. […]
compound,measurement,setting,value
"[2H]C([2H])([2H])N(C([2H])([2H])[2H])C([2H])([2H])C([2H])([2H])c1c[nH]c2cccc(O)c12 [psilocin-d10, 3-(2-(bis(methyl-d3)amino)ethyl-1,1,2,2-d4)-1H-indol-4-ol]",CL/F Mean (SD),"1 mg oral, Cohort 1 MDD, Day 1 and Day 22 pooled",101.08 (18.94) L/h
same,CL/F Mean (SD),"3 mg oral, Cohort 2 NHV, Day 1",85.22 (11.21) L/h
same,Cmax Mean (SD),"8 mg oral, Cohorts 2 and 3 NHV, Day 1 and Day 8 pooled, 2 subjects excluded",15.00 (4.85) ng/ml and 15.00^3 ng/ml
same,CL/F Mean (SD),"8 mg oral, Cohorts 2 and 3 NHV, pooled",97.56 (31.21) L/h
same,AUC0-24 Mean (SD),"8 mg oral, Cohorts 2 and 3 NHV, pooled, 2 subjects excluded",83.98 (21.46) h*ng/mL and 83.98^3 h*ng/mL
same,CL/F Mean (SD),"10 mg oral, Cohort 3 NHV, Day 8",104.7 (40.25) L/h
same,CL/F Mean (SD),"12 mg oral, Cohort 4 MDD, Day 1 and Day 22",85.32 (35.41) L/h
same,CL/F Mean (SD),"12 mg oral, Cohort 5 MDD, Day 1 and Day 22",91.95 (25.38) L/h
same,CL/F Mean (SD),"12 mg oral, Cohorts 4 and 5 MDD, Day 1 and Day 22",88.72 (30.45) L/h
same,CL/F Mean (SD),"16 mg oral, Cohort 6 MDD, all subjects incl. 3 with emesis",128.11 (83.50) L/h
same,mean clearance (CL/F),"16 mg, 18 doses, no emesis",~107.2 L/h
same,Observed Mean Cmax,"16 mg, Cohort 6, N = 18, excluding 3 doses with vomiting postdose",20.73^2 ng/mL
same,"fold increase in mean Cmax, 16 mg (18 doses, no emesis) compared to 12 mg",1.33-fold increase in dose,~1.1 fold
same,"fold increase in mean AUC, 12 mg compared to 8 mg",1.5-fold increase in dose,1.7 to 1.8 fold
same,"fold increase in mean Cmax, 12 mg compared to 8 mg",1.5-fold increase in dose,~1.2 fold
same,"mean Cmax, fold higher, 8 mg dose compared to 3 mg dose",2.67-fold increase in dose,2.45 fold
same,"mean AUC0-24, AUClast and AUC0-inf, fold higher, 8 mg compared to 1 mg",8-fold increase in dose,8.1 to 8.3 fold
same,"mean Cmax, fold higher, 8 mg dose compared to 1 mg dose",8-fold increase in dose,8.6 fold
same,"fold increase in mean AUC, 16 mg (18 doses, no emesis) compared to 12 mg","human, plasma, oral",~1.1 fold
same,"mean AUC0-24, AUClast and AUC0-inf higher for 10 mg compared to 8 mg","human, plasma, oral",~20%
same,"mean AUC0-24, AUClast and AUC0-inf, fold higher, 3 mg compared to 1 mg","human, plasma, oral",3.4 to 3.5 fold
same,mean Cmax lower for 10 mg dose cohort compared to 8 mg dose cohort,"human, plasma, oral",~10%
same,"mean Cmax, fold higher, 3 mg dose compared to 1 mg dose","human, plasma, oral",3.5 fold
same,Cmax,"human, plasma, oral, 8 mg, Cohort 2, Day 8, N = 4, read-out: Observed Mean Cmax",16.6 ng/mL
same,half-life,"human, plasma, oral, 8 mg, range of means for 1, 3 and 8 mg doses, read-out: elimination half-life, on average",4.18 to 5.41 h
same,Vd/F,"human, plasma, oral, 16 mg, 18 doses, no emesis, read-out: mean volume of distribution (Vz/F)",~834 L
same,AUC(0-t),"human, plasma, oral, 16 mg, Cohort 6, N = 18, excluding 3 doses with vomiting postdose, read-out: Observed Mean AUC0-24",165 ng·h/mL
same,Cmax,"human, plasma, oral, 16 mg, Cohort 6, N = 18, excluding 3 doses with vomiting postdose, read-out: Observed Mean Cmax",20.7 ng/mL
same,half-life,"human, plasma, oral, 16 mg, as given in the text, read-out: mean elimination half-life (T1/2) (converted)",5.58 h
same,Vd/F,"human, plasma, oral, range of means, 1 to 10 mg doses, read-out: apparent volume of distribution (Vz/F), on average",584 to 761 L
same,concentration at 2 h,"human, plasma, oral, 10 mg, Cohort 3 Day 8, read-out: plasma psilocin-d10 concentration of one subject at 2 hours postdose",18.7 ng/mL
same,concentration at 4 h,"human, plasma, oral, 10 mg, Cohort 3 Day 8, set ~20% below the 2-hour value, read-out: estimated plasma psilocin-d10 concentration of one subject at 4 hours postdose (missed sample)",14.9 ng/mL
same,AUC(0-t),"human, plasma, po, 1 mg, 1 mg oral, Cohort 1 MDD, Day 1 and Day 22 pooled, read-out: AUC0-24 Mean (SD)",10 ng·h/mL
same,AUC(0-inf),"human, plasma, po, 1 mg, 1 mg oral, Cohort 1 MDD, Day 1 and Day 22 pooled",10.2 ng·h/mL
same,AUC(0-t),"human, plasma, po, 1 mg, 1 mg oral, Cohort 1 MDD, Day 1 and Day 22 pooled, read-out: AUClast Mean (SD)",10 ng·h/mL
same,Cmax,"human, plasma, po, 1 mg, 1 mg oral, Cohort 1 MDD, Day 1 and Day 22 pooled, read-out: Cmax Mean (SD)",1.69 ng/mL
same,Cmax,"human, plasma, po, 1 mg, 1 mg oral, Cohort 1 MDD, Day 1 and Day 22 pooled, read-out: Cmax Median",1.7 ng/mL
same,half-life,"human, plasma, po, 1 mg, 1 mg oral, Cohort 1 MDD, Day 1 and Day 22 pooled, read-out: T1/2 Mean (SD) (converted)",4.18 h
same,Vd/F,"human, plasma, po, 1 mg, 1 mg oral, Cohort 1 MDD, Day 1 and Day 22 pooled, read-out: Vz/F Mean (SD)",608 L
same,AUC(0-t),"human, plasma, po, 3 mg, 3 mg oral, Cohort 2 NHV, Day 1, read-out: AUC0-24 Mean (SD)",34.5 ng·h/mL
same,AUC(0-inf),"human, plasma, po, 3 mg, 3 mg oral, Cohort 2 NHV, Day 1",35.6 ng·h/mL
same,AUC(0-t),"human, plasma, po, 3 mg, 3 mg oral, Cohort 2 NHV, Day 1, read-out: AUClast Mean (SD)",34.5 ng·h/mL
same,Cmax,"human, plasma, po, 3 mg, 3 mg oral, Cohort 2 NHV, Day 1, read-out: Cmax Mean (SD)",5.91 ng/mL
same,Cmax,"human, plasma, po, 3 mg, 3 mg oral, Cohort 2 NHV, Day 1, read-out: Cmax Median",5.87 ng/mL
same,half-life,"human, plasma, po, 3 mg, 3 mg oral, Cohort 2 NHV, Day 1, read-out: T1/2 Mean (SD) (converted)",4.76 h
same,Vd/F,"human, plasma, po, 3 mg, 3 mg oral, Cohort 2 NHV, Day 1, read-out: Vz/F Mean (SD)",584 L
same,Cmax,"human, plasma, po, 8 mg, 8 mg oral, Cohorts 2 and 3 NHV, Day 1 and Day 8 pooled, 2 subjects excluded, read-out: Cmax Mean (SD)",15 ng/mL
